Experimental data reported in patent EP0562480B1, “1-phenyl-5-substituted-1H-1, 2,4-triazole-3-carboxamide derivates, process for preparation of the same, and fungicidal composition comprising the same” (KUREHA CHEMICAL INDUSTRY CO., LTD., priority 1992, dated 1993).

System: Botrytis cinerea
Experiment: Test for controlling effect against cucumber gray mold
Assay type: in vivo, Botrytis cinerea on cucumber
Conditions: 500 ppm wettable powder spray, 5 ml per pot; cucumber first leaf stage; lesion areas three days after inoculation

| Structure (SMILES) | Inhibition rate (%) at concentration of 500 ppm Cucumber gray mold |
| --- | --- |
| CCCCOC(c1cccc(-n2nc(C(N)=O)nc2C2CCCCC2)c1)C(C)C (centres unmarked) [Compound 5, 1-[3-[(1-butoxy-2-methyl)propyl]phenyl]-5-cyclohexyl-1H-1,2,4-triazole-3-carboxamide] | 82% |
| CCCCOC(c1cccc(-n2nc(C(N)=O)nc2Cc2ccccc2)c1)C(C)C (centres unmarked) [Compound 6, 1-[3-[(1-butoxy-2-methyl)propyl]phenyl]-5-(phenylmethyl)-1H-1,2,4-triazole-3-carboxamide] | 80% |
